# ChEMBL document CHEMBL3526017, “Predicting the drug interaction potential of AMG 853, a dual antagonist of the D-prostanoid and chemoattractant receptor-homologous molecule expressed on T helper 2 cells receptors” (Drug Metab Dispos, 2012)
# pKi: −log10 of the molar value.
# Assays:
# Cytochrome P450 2J2 = target: T1, Cytochrome P450 2J2 (Homo sapiens, UniProt P51589); assay: Drug metabolism assessed as recombinant CYP2J2 (unknown origin)-mediated 2-(5-chloro-4-(2-(2-chloro-4-cyclopropylphenylsulfonamido)-4-(1-hydroxy-2-methylpropan-2-ylcarbamoyl)phenoxy)-2-fluorophenyl)acetic acid formation at 10 uM after 30 mins by LC-MS/MS analysis; format: ADME; conditions: recombinant enzyme, 0.5 h
# T1 sequence (P51589 whole entry): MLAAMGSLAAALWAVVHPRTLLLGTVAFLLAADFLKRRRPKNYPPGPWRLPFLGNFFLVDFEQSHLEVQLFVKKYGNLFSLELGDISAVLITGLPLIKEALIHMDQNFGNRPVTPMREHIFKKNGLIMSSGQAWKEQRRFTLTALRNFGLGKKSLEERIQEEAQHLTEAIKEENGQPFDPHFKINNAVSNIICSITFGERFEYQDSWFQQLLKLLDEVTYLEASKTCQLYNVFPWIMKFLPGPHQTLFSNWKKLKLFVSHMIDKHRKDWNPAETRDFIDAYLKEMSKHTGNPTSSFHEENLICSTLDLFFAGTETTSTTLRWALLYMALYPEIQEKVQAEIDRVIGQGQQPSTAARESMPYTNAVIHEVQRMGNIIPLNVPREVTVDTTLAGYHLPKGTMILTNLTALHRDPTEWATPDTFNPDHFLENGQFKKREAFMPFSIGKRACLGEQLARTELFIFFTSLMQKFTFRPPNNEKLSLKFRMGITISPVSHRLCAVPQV
# [1] = target: UDP-glucuronosyltransferase 2B15 (Homo sapiens, UniProt P54855); assay: (§1) Drug metabolism assessed as human recombinant UGT2B15-mediated (2S,3S,4S,5R,6S)-6-(2-(4-(4-(tert-butylcarbamoyl)-2-(2-chloro-4-cyclopropylphenylsulfonamido)phenoxy)-5-chloro-2-fluorophenyl)acetoxy)-3,4,5-trihydroxytetrahydro-2H-pyran-2-carboxylic acid formation at 10 uM after 30 mins by LC-MS/MS analysis; format: ADME; conditions: recombinant enzyme, 0.5 h
# [2] = target: UDP-glucuronosyltransferase 1A8 (Homo sapiens, UniProt Q9HAW9); assay: as §1, with “UGT1A8-mediated” for “UGT2B15-mediated”; format: ADME; conditions: recombinant enzyme, 0.5 h
# [3] = AUC (0 to infinity) in healthy human at 50 mg, po; format: ADME, organism-based; set-up: dose 50 mg, route oral, time infinity; conditions: plasma
# Cytochrome P450 2C8 = target: T2, Cytochrome P450 2C8 (Homo sapiens, UniProt P10632); assay: Linear mixed inhibition of CYP2C8 in human liver microsomes assessed as rosiglitazone demethylation after 20 mins by LC-MS/MS analysis; format: ADME
# T2 sequence (P10632 whole entry): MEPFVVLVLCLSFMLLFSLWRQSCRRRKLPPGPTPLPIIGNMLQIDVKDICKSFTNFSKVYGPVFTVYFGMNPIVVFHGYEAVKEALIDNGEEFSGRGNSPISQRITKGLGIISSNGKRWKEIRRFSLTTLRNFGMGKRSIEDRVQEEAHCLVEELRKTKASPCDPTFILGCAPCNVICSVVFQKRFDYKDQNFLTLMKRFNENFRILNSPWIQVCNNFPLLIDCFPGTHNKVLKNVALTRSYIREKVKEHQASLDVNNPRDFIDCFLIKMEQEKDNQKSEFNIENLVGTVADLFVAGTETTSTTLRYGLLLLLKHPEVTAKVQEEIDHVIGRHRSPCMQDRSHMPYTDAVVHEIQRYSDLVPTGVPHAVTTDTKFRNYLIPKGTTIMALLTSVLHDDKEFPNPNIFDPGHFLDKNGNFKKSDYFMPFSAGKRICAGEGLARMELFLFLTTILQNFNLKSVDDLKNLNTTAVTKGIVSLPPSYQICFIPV
# Chain of UDP-glucuronosyltransferase 1A8 (Q9HAW9 whole entry): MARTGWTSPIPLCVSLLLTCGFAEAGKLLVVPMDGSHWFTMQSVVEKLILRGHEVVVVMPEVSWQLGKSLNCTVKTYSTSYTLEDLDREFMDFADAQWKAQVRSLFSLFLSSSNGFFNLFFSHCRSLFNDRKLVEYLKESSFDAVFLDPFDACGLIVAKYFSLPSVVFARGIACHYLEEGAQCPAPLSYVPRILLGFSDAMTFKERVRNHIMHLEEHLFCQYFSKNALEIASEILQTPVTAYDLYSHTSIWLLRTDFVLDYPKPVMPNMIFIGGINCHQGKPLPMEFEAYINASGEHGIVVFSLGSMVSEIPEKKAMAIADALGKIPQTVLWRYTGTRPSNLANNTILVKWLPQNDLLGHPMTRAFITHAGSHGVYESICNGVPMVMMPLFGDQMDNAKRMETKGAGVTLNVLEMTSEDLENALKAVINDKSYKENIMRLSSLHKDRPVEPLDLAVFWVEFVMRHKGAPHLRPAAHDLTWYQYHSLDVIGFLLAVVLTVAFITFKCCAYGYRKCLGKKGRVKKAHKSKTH
# Chain of UDP-glucuronosyltransferase 2B15 (P54855 whole entry): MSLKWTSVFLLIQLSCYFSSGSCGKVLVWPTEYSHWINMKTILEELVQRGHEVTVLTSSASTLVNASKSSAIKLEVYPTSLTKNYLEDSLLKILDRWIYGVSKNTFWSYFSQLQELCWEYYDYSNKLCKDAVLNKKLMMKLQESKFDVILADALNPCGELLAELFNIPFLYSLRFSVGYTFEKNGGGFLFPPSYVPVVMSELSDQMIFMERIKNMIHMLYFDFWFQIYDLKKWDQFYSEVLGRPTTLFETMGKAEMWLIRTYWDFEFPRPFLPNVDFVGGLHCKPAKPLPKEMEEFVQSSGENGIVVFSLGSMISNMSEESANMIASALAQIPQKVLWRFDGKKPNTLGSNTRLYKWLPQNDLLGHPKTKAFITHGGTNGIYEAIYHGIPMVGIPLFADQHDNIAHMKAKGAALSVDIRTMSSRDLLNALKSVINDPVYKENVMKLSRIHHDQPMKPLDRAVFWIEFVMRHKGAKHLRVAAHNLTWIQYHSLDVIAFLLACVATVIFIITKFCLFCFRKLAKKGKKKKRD
Drug metabolism (Cytochrome P450 2J2),AUC(0-inf) [3] [µg·h/mL],pKi (Cytochrome P450 2C8),Structure (SMILES),Drug metabolism [1],Drug metabolism [2]
metabolite_detected,0.671,,CC(C)(C)NC(=O)c1ccc(Oc2cc(F)c(CC(=O)O)cc2Cl)c(NS(=O)(=O)c2ccc(C3CC3)cc2Cl)c1 [VIDUPIPRANT],metabolite_not_detected,metabolite_detected
,,5.16,CC(C)(C)NC(=O)c1ccc(Oc2cc(F)c(CC(=O)O[C@@H]3O[C@H](C(=O)O)[C@@H](O)[C@H](O)[C@H]3O)cc2Cl)c(NS(=O)(=O)c2ccc(C3CC3)cc2Cl)c1,,
